Test results taken from patent US20230112845A1, “COMPOSITIONS OF BERBERINE URSODE[…] METHODS THEREOF FOR TREATING FATTY LIVER DISEASE, DIABETES AND HYPERLIPIDEMIA” (SHENZHEN HIGHTIDE BIOPHARMACEUTICAL LTD., priority 2020, published 2023).

Tested on: subjects with a history of hypercholesterolemia
Assay: Phase 1b study: safety and tolerability
Type: in vivo, human
Settings: 28 days
Protocol: A double-blind, randomized, placebo-controlled, dose ranging study was carried out that compared three doses of berberine ursodeoxycholate (BUDCA, a.k.a. HTD1801) to placebo in a cohort of subjects with a history of hypercholesterolemia and serum LDL-c levels above 2.59 mmol/L (>99.9 mg/dL). BUDCA was administered in two divided doses each day for 28 days. The primary endpoints of the study were safety and tolerability of this new compound, as well as its effect in lowering serum lipid and lipoprotein concentrations.
Subjects underwent an initial assessment and were then randomized to receive ascending doses of BUDCA in three sequential dosing groups: Group I received 500 mg/day of BUDCA or matching placebo in a ratio of 3:1. Group II received 1,000 mg/day of BUDCA or placebo, 3:1 and Group III received 2,000 mg/day BUDCA or placebo, 3:1. Study medication or placebo was given in two equal doses daily for 28 days. […]
The groups were enrolled sequentially, but follow-up overlapped (the next cohort could begin during the follow-up period of the prior cohort) (FIG. 1). The decision to move to the next dose level was based upon tolerability and safety findings, as assessed by a Safety Monitoring Committee. […] After having vital signs measured and baseline laboratory tests taken, the subject was given a morning meal and then observed while taking their first dose of BUDCA with a glass of water. […]

With COc1ccc2cc3[n+](cc2c1OC)CCc1cc2c(cc1-3)OCO2.C[C@H](CCC(=O)[O-])[C@H]1CC[C@H]2[C@@H]3[C@@H](O)C[C@@H]4C[C@H](O)CC[C@]4(C)[C@H]3CC[C@]12C [BUDCA, berberine ursodeoxycholate] the “frequency of treatment-related adverse events” value (active drug, all doses, placebo 66%) was 67% and the tolerability (up to 2,000 mg per day) was “generally well tolerated”.
